6 compounds from ChEMBL document CHEMBL1148537, “The first de novo designed inhibitors of Plasmodium falciparum dihydroorotate dehydrogenase” (Bioorg Med Chem Lett, 2006) can be followed below.

The target of assay [1] is T1, Dihydroorotate dehydrogenase (Plasmodium falciparum, UniProt Q54A96).
T1 sequence (Q54A96 whole entry): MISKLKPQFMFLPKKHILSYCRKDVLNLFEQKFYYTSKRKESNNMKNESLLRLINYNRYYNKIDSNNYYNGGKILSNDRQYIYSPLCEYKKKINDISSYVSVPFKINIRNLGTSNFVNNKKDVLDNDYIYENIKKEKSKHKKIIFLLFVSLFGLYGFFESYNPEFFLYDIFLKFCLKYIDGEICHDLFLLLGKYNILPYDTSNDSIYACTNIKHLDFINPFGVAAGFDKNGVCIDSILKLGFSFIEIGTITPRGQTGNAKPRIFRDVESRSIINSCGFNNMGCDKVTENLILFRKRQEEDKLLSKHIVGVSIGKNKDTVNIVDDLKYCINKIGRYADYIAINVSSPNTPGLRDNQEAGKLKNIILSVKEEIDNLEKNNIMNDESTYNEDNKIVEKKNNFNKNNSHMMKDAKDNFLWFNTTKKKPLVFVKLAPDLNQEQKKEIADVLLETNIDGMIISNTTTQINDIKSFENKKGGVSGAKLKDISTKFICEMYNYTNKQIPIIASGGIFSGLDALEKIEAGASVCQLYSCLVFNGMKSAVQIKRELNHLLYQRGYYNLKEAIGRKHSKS
Description: Binding affinity to Plasmodium falciparum DHODH. The note with it: for Ki: read-out: Ki app.

Assay [2] deals with Dihydroorotate dehydrogenase (quinone), mitochondrial (Homo sapiens, UniProt Q02127). Description: Binding affinity to human DHODH.

Structures are written as SMILES. Where only a bound is given, the exact number is not on record here.

Dihydroorotate dehydrogenase (quinone), mitochondrial, sequence (Q02127 whole entry): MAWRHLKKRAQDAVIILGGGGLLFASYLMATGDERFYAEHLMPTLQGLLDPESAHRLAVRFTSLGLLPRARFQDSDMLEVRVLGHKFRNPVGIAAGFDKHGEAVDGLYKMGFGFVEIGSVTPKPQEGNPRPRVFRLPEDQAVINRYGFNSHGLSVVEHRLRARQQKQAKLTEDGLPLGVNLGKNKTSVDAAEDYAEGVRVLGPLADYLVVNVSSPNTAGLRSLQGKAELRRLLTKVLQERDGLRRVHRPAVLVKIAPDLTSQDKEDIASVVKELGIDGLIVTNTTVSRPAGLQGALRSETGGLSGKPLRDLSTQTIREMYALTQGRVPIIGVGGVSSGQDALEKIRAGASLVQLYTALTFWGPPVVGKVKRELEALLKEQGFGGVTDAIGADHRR

`CN(C(=O)c1ccc(-c2ccccc2)cc1)c1ccccc1C(=O)O`: in assay [1], the IC50 (commonly the concentration at which inhibition is half-maximal) was found to be 42.6 µM and the Ki came out at 4.9 µM. Besides, the IC50 in assay [2] was above 200 µM.
In the case of `O=C(Nc1ccccc1C(=O)O)c1ccc2cc(Br)ccc2c1`, in assay [1], the IC50 turned out to be 143 µM and the Ki turned out to be 16.4 µM. In assay [2], this compound returned an IC50 of 8.4 µM and a Ki of 1.1 µM.
`CN(C(=O)c1ccc2ccccc2c1)c1ccccc1C(=O)O`: the IC50 in assay [1] and in assay [2] was above 200 µM throughout.
`O=C(Nc1ccccc1C(=O)O)c1ccc2ccccc2c1` gave an IC50 in assay [1] above 200 µM. In assay [2], this compound had an IC50 of 13.8 µM and a Ki of 1.8 µM.
Turning to `O=C(Nc1ccccc1C(=O)O)c1ccc(-c2ccccc2)cc1`, the IC50 stood at 154 µM in assay [1] and 5 µM in assay [2]. Further, the values for the Ki in assay [1] and in assay [2] were 17.7 µM and 0.7 µM, respectively.
As for `CN(C(=O)c1ccc2cc(Br)ccc2c1)c1ccccc1C(=O)O`, in assay [1], the concentration for half-maximal inhibition (IC50) was found to be 93.4 µM and the Ki was determined as 10.8 µM. The compound further returned an IC50 in assay [2] above 200 µM.
